Laboratory results taken from patent publication US5635401A, “Method to detect hormone treatment in animals” (Cornell Research Foundation, Inc., priority 1995, dated 1997).
Each block holds one molecule with its values, some of them ahead of it.

How the values were obtained:
[1] = system: protein kinase activity of the resident proteins present in the MFGM; assay: Auto-phosphorylation of MFGM proteins with γ 32P-ATP, detected by SDS-PAGE and autoradiography; format: biochemical, bovine; conditions: for effect on the phosphorylation pattern: valinomycin with or without KCl, ionophore A23187 + CaCl2
Protocol: MFGM and skim milk membranes (SMM) were incubated with γ ^32 P-ATP in the presence of protein phosphatase inhibitors (vanadate, 8-glycerophosphate, phosphotyrosine, phosphoserine, phosphothreonine, p-nitrophenyl phosphate) and 5 mM MgCl, and/or 3 mM MnCl, led to phosphorylation of proteins, as detected by SDS-PAGE and autoradiography. In the bovine MFGM, […] main radiolabelled protein bands were detected and ranged from 13-200 kDa (13, 15, 21, 24, 32, 35, 39, 45, 51, 66, 75, 100, 130, 200). In the human MFGM, 8 bands were indentified and ranged between 20-150 kDa five main bands corresponding to 51, 65, 66, 100, and 130, and three weaker bands corresponding to 21, 24 and 27 kDa. Phosphorylation of bovine skim milk membrane (SMM) proteins was observed only after the addition of 0.1% Triton X-100 to membranes. In this case, the three-four main radioactive bands were detected in a zone between 32 and 35 kDa, and one band in the 75 kDa range.
The presence of phosphatase inhibitors in the kinase media was necessary to see maximal levels of protein phosphorylation. The phosphorylation reaction would not take place when Mg^2+ and Mn^2+ were substituted for Ca^2+. Genistein, an inhibitor of protein tyrosine kinase activity caused approximately 50% inhibition of phosphorylation.
It is believed that the observed phosphorylation was a result of Mg^2+ or Mn^2+ --dependent protein kinase activity of the resident proteins present in the MFGM.

[2] = system: bovine mammary and human breast cancer cells; conditions: including bovine mammary and human breast cancer cells; cited from earlier work
[3] = system: fatty acid binding protein (FABP/MDGI); assay: FABP phosphorylation in MFGM of milk from cows treated with bST (15 kDa band intensity on electrophoresis gel, FIG. 1); format: in vivo, cow; conditions: for phosphorylated 15 kDa protein (FABP) relative to non-bST treated control cow: FIG. 1
Protocol: The test for determining whether an animal has been treated with bST is performed by: 1) isolating the milk fat globule membranes (MFGM); 2) phosphorylating the MFGM; 3) and detecting the levels of phosphorylation of FABP in MFGM.
Milk fat globule membranes (MFGM) are prepared from the cream of fresh bovine milk. Between 100-200 ml fresh bovine milk from cows administered bST are collected. The cream is obtained by centrifugation of milk at 3,000×g for 20 min. It is then suspended in two volumes of 10 mM phosphate buffer, pH 7.4, containing 0.9% NaCl (PBS), and homogenized in a Warring blender for 45 sec. The homogenate is centrifuged at 100,000×g for 90 min. The MFGM pellet is washed once by resuspension in an initial volume of PBS, followed by centrifugation at 100,000×gfor 90 min. No cells (somatic cells) are found in the MFGM, as determined by light microscopy. MFGM may be either used immediately or stored at -80' C. for future use.
FABP/MDGI is involved in the binding and transport of milk fatty acids.
FIG. 1 is a bar graph showing intensity of a band on an electrophoresis gel showing FABP phosphorylation at the 15 kDalton level. The non-bST treated cow was used as a control. A sample from a milk bulk tank containing milk from cows treated with bST has only about a quarter of the phosphorylated 15 kDa protein.

Molecule: CC1OC(OC2CC(O)C3(CO)C4C(O)CC5(C)C(C6=CC(=O)OC6)CCC5(O)C4CCC3(O)C2)C(O)C(O)C1O (stereo not drawn) [Oubain]
- effect on the phosphorylation pattern [1]: did not significantly alter

Molecule: C(=NC1CCCCC1)=NC1CCCCC1 [DCCD, dicyclohexylcarbodimide]
- effect on the phosphorylation pattern [1]: did not significantly alter

- inhibition of phosphorylation ([1]; kinase media with phosphatase inhibitors): approximately 50%
Molecule: O=c1c(-c2ccc(O)cc2)coc2cc(O)cc(O)c12 [Genistein]

Molecule: N#CC(C#N)=NNc1cccc(Cl)c1 [CCCP, carbonyl-cyanide-m-chlorophenyl hydrazone]
- effect on the phosphorylation pattern [1]: did not significantly alter

Molecule: C=C1[C@@H]2CC[C@H]3[C@]4(C)C[C@H](O[C@@H]5O[C@H](CO)[C@@H](OS(=O)(=O)O)[C@H](OS(=O)(=O)O)[C@H]5OC(=O)CC(C)C)C[C@@H](C(=O)O)[C@H]4CC[C@]3(C2)[C@H]1O [atractyloside]
- effect on the phosphorylation pattern [1]: did not significantly alter

Molecule: CNc1ccc2oc(C[C@H]3O[C@@]4(CC[C@H]3C)O[C@H]([C@H](C)C(=O)c3ccc[nH]3)[C@H](C)C[C@H]4C)nc2c1C(=O)O [ionophore A23187]
- effect on the phosphorylation pattern [1]: did not significantly alter

Molecule: CC(C)[C@@H]1NC(=O)[C@H](C)OC(=O)[C@@H](C(C)C)NC(=O)[C@@H](C(C)C)OC(=O)[C@H](C(C)C)NC(=O)[C@H](C)OC(=O)[C@@H](C(C)C)NC(=O)[C@@H](C(C)C)OC(=O)[C@H](C(C)C)NC(=O)[C@H](C)OC(=O)[C@@H](C(C)C)NC(=O)[C@@H](C(C)C)OC1=O [valinomycin]
- effect on the phosphorylation pattern [1]: did not significantly alter

B1: MDGI/FABP: mammary derived growth inhibitor / fatty acid binding protein, a 15 kDa protein of the milk fat globule membrane (protein, UniProt P10790 2-133, looked up)
Fatty acid-binding protein, …: VDAFVGTWKLVDSKNFDDYMKSLGVGFATRQVGNMTKPTTIIEVNGDTVIIKTQSTFKNTEISFKLGVEFDETTADDRKVKSIVTLDGGKLVHVQKWNGQETSLVREMVDGKLILTLTHGTAVCTRTYEKQA
- growth of various cell types [2]: inhibits the growth

B2: bST: recombinant bovine somatotropin, growth hormone approved for use in dairy cows (protein, UniProt P01246 27-217, looked up)
Somatotropin: AFPAMSLSGLFANAVLRAQHLHQLAADTFKEFERTYIPEGQRYSIQNTQVAFCFSETIPAPTGKNEAQQKSDLELLRISLLLIQSWLGPLQFLSRVFTNSLVFGTSDRVYEKLKDLEEGILALMRELEDGTPRAGQILKQTYDKFDTNMRSDDALLKNYGLLSCFRKDLHKTETYLRVMKCRRFGEASCAF
- levels of phosphorylated MDGI/FABP ([3]; MFGM isolated from cows treated with bST vs non treated cows): significantly reduced
- FABP autophosphorylation activity ([3]; cows treated with bST vs non treated cows): weaker
- phosphorylated 15 kDa protein (FABP) relative to non-bST treated control cow ([3]; individual cows treated with bST): significant decrease
- phosphorylated 15 kDa protein (FABP) relative to non-bST treated control cow ([3]; milk bulk tank sample containing milk from cows treated with bST): about a quarter
